9 molecules from PubChem BioAssay (NCI) can be followed below.

Several values for one entry are separate records, joined by “and”; a condition that tells them apart may be missing. Equal entries are not always repeated.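 Each compound was tested at five concentrations against cells in 96-well plates for 48 hours. GI50 = concentration required for 50% inhibition of growth. At the TGI there is no net growth.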

Among the test systems are UACC-257 melanoma; UACC-62 melanoma; HOP-92 NSCLC; A498 renal; COLO 205 colon; A549 NSCLC; ACHN renal; HL-60(TB) leukemia; SR leukemia; SK-MEL-5 melanoma.
Assay in all cases: NCI tumour cell line growth inhibition, 48 h

`CCn1c2c(c3ccccc31)[C@@H](c1ccc(Cl)cc1)CC1C(=O)N(c3ccccc3)C(=O)C21` (some centres not stated): the TGI with UACC-257 melanoma was > 100 µM; with UACC-62 melanoma, > 100 µM; in the assay with HOP-92 NSCLC, 90.5 µM; in the assay with A498 renal, > 100 µM; with COLO 205 colon, > 100 µM; in the assay with A549 NSCLC, > 100 µM. In addition, the TGI is > 100 µM in the assay with ACHN renal, > 100 µM in the assay with HL-60(TB) leukemia, 98.8 µM with SR leukemia and > 100 µM in the assay with SK-MEL-5 melanoma.
For `Cc1cccc(C)c1N1C(=O)C(=O)C(c2nc3ccccc3s2)/C(=N/NC(=O)c2ccccc2O)C1=O` (configuration not stated), the TGI in the assay with UACC-257 melanoma was 68.2 µM; in the assay with UACC-62 melanoma, 8.31 µM; in the assay with HOP-92 NSCLC it was > 67.5 µM; in the assay on A498 renal, > 100 µM; in the assay on COLO 205 colon, > 86.9 µM; with A549 NSCLC, > 100 µM. The TGI in the assay with ACHN renal was > 89.4 µM; with HL-60(TB) leukemia, 43.1 µM; in the assay on SR leukemia it was 86.3 µM; in the assay with SK-MEL-5 melanoma it was > 53.7 µM.
For `O=C(Nc1ccc(F)cc1)Nc1ccc(Br)c(C(F)(F)F)c1`, the GI50 in the assay on UACC-257 melanoma is 2.73 µM; with UACC-62 melanoma it was 2.29 µM; with HOP-92 NSCLC it was 1.63 µM; in the assay with A498 renal, 1.92 µM; with COLO 205 colon, 1.72 µM; in the assay on A549 NSCLC it was 2.34 µM. For the same molecule, the GI50 is 2.09 µM with ACHN renal, 1.87 µM with HL-60(TB) leukemia, 1.88 µM in the assay with SR leukemia and 1.67 µM in the assay with SK-MEL-5 melanoma. The TGI was 7.51 µM with UACC-257 melanoma; 10.1 µM in the assay on UACC-62 melanoma; 5.24 µM in the assay with HOP-92 NSCLC; 5.15 µM with A498 renal; 3.27 µM with COLO 205 colon; 12.8 µM with A549 NSCLC. In addition, the TGI in the assay on ACHN renal turned out to be 7.64 µM; in the assay on HL-60(TB) leukemia, 5.19 µM; with SR leukemia, 6.49 µM; in the assay with SK-MEL-5 melanoma, 3.11 µM.
On to `O=C(CI)Nc1ccc(O)c2ccccc12`, for which the GI50 in the assay with UACC-257 melanoma was 1.54 µM; in the assay with UACC-62 melanoma, 1.67 µM; in the assay on HOP-92 NSCLC, 1.61 µM; in the assay on A498 renal it was 2.37 µM; in the assay with COLO 205 colon it was 0.379 µM; with A549 NSCLC it was 3.56 µM. The GI50 in the assay with ACHN renal was 1.49 µM; in the assay on HL-60(TB) leukemia, 1.61 µM; in the assay on SR leukemia it was 0.726 µM; in the assay on SK-MEL-5 melanoma, 1.63 µM. Further, the TGI with UACC-257 melanoma amounted to 3.14 µM; in the assay with UACC-62 melanoma it was 3.44 µM; in the assay with HOP-92 NSCLC it was 3.39 µM; in the assay with A498 renal, 9.12 µM; with COLO 205 colon it was 0.956 µM; with A549 NSCLC, 13.7 µM. For the same molecule, the TGI with ACHN renal came to 2.84 µM; with HL-60(TB) leukemia it was 4.79 µM; in the assay with SR leukemia, 3.75 µM; with SK-MEL-5 melanoma it was 3.08 µM.
For `C[n+]1c2ccccc2nc2ccccc21`, the GI50 was 1.8 µM in the assay on UACC-257 melanoma; 1.41 µM with UACC-62 melanoma; 1.5 µM with HOP-92 NSCLC; 1.75 µM with A498 renal; 0.375 µM in the assay with COLO 205 colon; 2.93 µM with A549 NSCLC. In addition, the GI50 with ACHN renal is 0.789 µM; in the assay with HL-60(TB) leukemia, 1.74 µM; with SR leukemia, 6.14 µM; in the assay on SK-MEL-5 melanoma, 1.03 µM. Further, the TGI with UACC-257 melanoma turned out to be 5.01 µM; in the assay on UACC-62 melanoma, 2.99 µM; in the assay with HOP-92 NSCLC, 4.71 µM; with A498 renal it was 3.46 µM; in the assay on COLO 205 colon, 1.39 µM; in the assay with A549 NSCLC it was 19.9 µM. In addition, the TGI in the assay on ACHN renal was 5.5 µM; in the assay with HL-60(TB) leukemia it was > 16.1 µM; in the assay with SR leukemia it was > 28.2 µM; in the assay on SK-MEL-5 melanoma, 2.52 µM.
As to `CCC1(OC(=O)CN)C(=O)OCc2c1cc1n(c2=O)Cc2cc3ccccc3nc2-1` (configuration not stated), the GI50 was 0.0859 µM with UACC-257 melanoma; 0.00787 µM in the assay on UACC-62 melanoma; 0.0971 µM in the assay on HOP-92 NSCLC; 0.0129 µM with A498 renal; 0.276 µM in the assay on COLO 205 colon; 0.0472 µM with A549 NSCLC. Further, the GI50 in the assay on ACHN renal was 0.00476 µM; in the assay on SK-MEL-5 melanoma, 0.0187 µM and < 0.0128 µM. Moreover, the TGI was 0.721 µM and 0.545 µM with UACC-257 melanoma; 0.0895 µM and 0.0596 µM with UACC-62 melanoma; 0.159 µM and 0.559 µM in the assay with A498 renal; 0.667 µM with COLO 205 colon; 2.28 µM in the assay with A549 NSCLC; 0.183 µM and 0.0628 µM in the assay with ACHN renal. Further, the TGI in the assay with HL-60(TB) leukemia was 0.084 µM and < 0.0132 µM; with SR leukemia, < 0.0347 µM; with SK-MEL-5 melanoma it was 0.107 µM and 0.0329 µM.
As to `COc1ccc(/C=C2\SC(=Nc3ccccc3)NC2=O)cc1`, the GI50 is 52.2 µM in the assay on UACC-257 melanoma; 4.79 µM in the assay with UACC-62 melanoma; 7.64 µM in the assay on HOP-92 NSCLC; 1.08 µM with A498 renal; 4.68 µM in the assay with COLO 205 colon; 4.74 µM in the assay with A549 NSCLC. The GI50 is 5.53 µM in the assay on ACHN renal, 3.53 µM in the assay on HL-60(TB) leukemia, 2.5 µM in the assay on SR leukemia and 7.63 µM in the assay on SK-MEL-5 melanoma. For the same molecule, the TGI in the assay with UACC-257 melanoma is > 100 µM; in the assay on UACC-62 melanoma, > 100 µM; with HOP-92 NSCLC, 53.5 µM; in the assay with A498 renal, 7.34 µM; with COLO 205 colon, 27.9 µM; with A549 NSCLC, 26.7 µM. For the same molecule, the TGI in the assay on ACHN renal was 48.5 µM; with HL-60(TB) leukemia, > 100 µM; in the assay on SR leukemia, 30.7 µM; in the assay on SK-MEL-5 melanoma, 30.5 µM.
For `CCOC(=O)C12C(C(=O)OC)=C(C)N(NC(=O)Nc3ccccc3)C1(N)N(NC(=O)Nc1ccccc1)C(C)=C2C(=O)OC` (configuration not stated), the TGI is 62.9 µM in the assay on UACC-257 melanoma; 34.5 µM with UACC-62 melanoma; 66.3 µM in the assay with HOP-92 NSCLC; > 100 µM with A498 renal; > 56.2 µM in the assay with COLO 205 colon; > 100 µM in the assay with A549 NSCLC. The TGI was > 100 µM with ACHN renal, 48.8 µM in the assay with HL-60(TB) leukemia, 59.1 µM with SR leukemia and 39.3 µM in the assay on SK-MEL-5 melanoma.
Consider `Cc1cc(C)c(C(=O)O)c(SSc2cc(C)cc(C)c2C(=O)O)c1`, for which the TGI in the assay on UACC-257 melanoma, in the assay on UACC-62 melanoma, in the assay with HOP-92 NSCLC, in the assay with A498 renal, with COLO 205 colon and in the assay on A549 NSCLC was > 100 µM in each case. Also, the TGI in the assay on ACHN renal, in the assay with HL-60(TB) leukemia, with SR leukemia and in the assay on SK-MEL-5 melanoma was > 100 µM each time.
